Test results from paper PMC9120017, “Inhibition mechanism of the chloride channel TMEM16A by the pore blocker 1PBC” (Nature Communications, 2022).
Like-named read-outs stand apart in the source and are kept apart here.

Biological target: T1, wild-type mouse TMEM16A (Mus musculus, UniProt Q8BHY3)
T1 construct: expressed in transfected cells; host or cells: HEK293T
T1 sequence (Q8BHY3 1-960): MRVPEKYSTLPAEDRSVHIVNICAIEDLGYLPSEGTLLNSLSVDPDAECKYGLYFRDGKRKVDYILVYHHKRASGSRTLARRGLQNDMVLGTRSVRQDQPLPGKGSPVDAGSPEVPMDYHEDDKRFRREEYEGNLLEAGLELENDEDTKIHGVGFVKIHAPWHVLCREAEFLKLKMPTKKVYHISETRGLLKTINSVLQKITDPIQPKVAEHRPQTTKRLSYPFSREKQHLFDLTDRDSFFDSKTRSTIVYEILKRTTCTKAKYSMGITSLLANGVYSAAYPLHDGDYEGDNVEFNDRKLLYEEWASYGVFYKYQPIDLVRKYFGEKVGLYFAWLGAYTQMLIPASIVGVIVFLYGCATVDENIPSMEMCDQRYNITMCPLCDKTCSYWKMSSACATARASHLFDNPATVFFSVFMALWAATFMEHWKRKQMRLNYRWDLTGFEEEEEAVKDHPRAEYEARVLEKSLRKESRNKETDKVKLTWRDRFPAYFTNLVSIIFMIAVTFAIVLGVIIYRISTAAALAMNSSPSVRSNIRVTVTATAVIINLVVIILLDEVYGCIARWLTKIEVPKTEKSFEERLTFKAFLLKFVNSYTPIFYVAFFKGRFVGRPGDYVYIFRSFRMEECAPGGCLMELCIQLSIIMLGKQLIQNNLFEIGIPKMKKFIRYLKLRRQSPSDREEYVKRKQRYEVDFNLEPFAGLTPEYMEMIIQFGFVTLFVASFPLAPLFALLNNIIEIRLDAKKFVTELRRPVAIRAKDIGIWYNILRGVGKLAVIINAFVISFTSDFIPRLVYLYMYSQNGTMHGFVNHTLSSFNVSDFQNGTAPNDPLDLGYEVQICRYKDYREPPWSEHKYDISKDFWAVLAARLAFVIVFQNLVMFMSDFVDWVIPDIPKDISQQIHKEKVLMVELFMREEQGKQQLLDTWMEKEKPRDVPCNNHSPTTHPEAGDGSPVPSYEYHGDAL
Experiment: Inside-out patch recording of 1PBC block, wild-type TMEM16A
Format: cell-based
Settings: for remaining activity at 3 µM / remaining activity at 10 µM: read-out: I/Imax
Description: HEK293T cells (ATCC CRL-1573) were maintained in Dulbecco’s modified Eagle’s medium (DMEM; Sigma-Aldrich) supplemented with 10 U ml^−1 penicillin, 0.1 mg ml^−1 streptomycin (Sigma-Aldrich), 2 mM L-glutamine (Sigma-Aldrich), and 10% FBS (Sigma-Aldrich) in a humidified atmosphere containing 5% CO2 at 37 °C. HEK293S GnTI^− cells (ATCC CRL-3022) were maintained in HyClone HyCell TransFx-H medium (GE Healthcare) supplemented with 10 U ml^−1 penicillin, 0.1 mg ml^−1 streptomycin, 4 mM L-glutamine, 0.15% poloxamer 188 (Sigma-Aldrich), and 1% FBS in an atmosphere containing 5% CO2 at 185 rpm at 37 °C. The ac splice variant of mouse TMEM16A (UniProt ID: Q8BHY3), mouse TMEM16B (UniProt ID: Q8CFW1), or mouse TMEM16F (UniProt ID: Q6P9J9) bearing a 3C cleavage site, a Venus YFP, a Myc tag, and a Streptavidin-binding peptide (SBP) downstream of the open reading frame in a modified pcDNA3.1 vector (Invitrogen) were used as described previously[21],[31]. Mutations were introduced using a modified QuikChange method[58] and were verified by sequencing.
HEK293T cells were transfected with 3–4 μg DNA per 6 cm Petri dish using the calcium phosphate co-precipitation method and were used within 24–96 h after transfection. Recordings were performed on inside-out patches excised from HEK293T cells expressing the construct of interest. Patch pipettes were pulled from borosilicate glass capillaries (O.D. 1.5 mm, I.D. 0.86 mm, Sutter Instrument) and were fire-polished with a microforge (Narishige) before use. Pipette resistance was typically 3–8 MΩ when filled with the recording solutions detailed below. Seal resistance was typically 4 GΩ or higher. Voltage-clamp recordings were made using Axopatch 200B, Digidata 1550, and Clampex 10.7 (Molecular Devices). Analog signals were filtered with the in-built 4-pole Bessel filter at 10 kHz and were digitized at 20 kHz. Solution exchange was achieved using a gravity-fed system through a theta glass pipette mounted on an ultra-fast piezo-driven stepper (Siskiyou). […] All recordings were performed at 20 °C.
A symmetrical ionic condition was used throughout. Stock solution with Ca^2+-EGTA contained 150 mM NaCl, 5.99 mM Ca(OH)2, 5 mM EGTA, and 10 mM HEPES at pH 7.40. Stock solution with EGTA contained 150 mM NaCl, 5 mM EGTA, and 10 mM HEPES at pH 7.40. Free Ca^2+ concentrations were adjusted by mixing the stock solutions at the required ratios calculated using the WEBMAXC program (http://web.stanford.edu/~cpatton/webmaxcS.htm). Patch pipettes were filled with the stock solution with Ca^2+-EGTA, which has a free Ca^2+ concentration of 1 mM. 1PBC (ChemBridge) stock was reconstituted in anhydrous DMSO (Sigma-Aldrich) at 100 mM and stored at −20 °C. Working solutions with 1PBC were prepared by serial dilution. Unless otherwise stated, experiments were performed at a saturating Ca^2+ concentration as shown in Supplementary Table 1 and the primary data were corrected for current rundown as described previously[21],[25].
Concentration-response relations, obtained from the ratio of the I-V plots before and after the application of the blocker, were fitted to the Hill equation,1 I/Imax=1/1+IC50/[blocker]^h where I/Imax is the normalized current responses, IC50 defines the concentration at which inhibition is at its half-maximum, and h is the Hill coefficient.

- Steady-state current (normalized) (3 µM 1PBC, 60 mV, 2 µM Ca2+): 0.2233
- remaining activity at 3 µM (3 µM 1PBC, 60 mV, 2 µM Ca2+): 40.5%
- Steady-state current (normalized) (3 µM 1PBC, 80 mV, 2 µM Ca2+): 0.2697
- remaining activity at 3 µM (3 µM 1PBC, 80 mV, 2 µM Ca2+): 38.1%
- Steady-state current (normalized) (3 µM 1PBC, 100 mV, 2 µM Ca2+): 0.3173
- remaining activity at 3 µM (3 µM 1PBC, 100 mV, 2 µM Ca2+): 37.3%
- Steady-state current (normalized) (3 µM 1PBC, 120 mV, 2 µM Ca2+): 0.3753
- remaining activity at 3 µM (3 µM 1PBC, 120 mV, 2 µM Ca2+): 38.6%
- Steady-state current (normalized) (3 µM 1PBC, 140 mV, 2 µM Ca2+): 0.4543
- remaining activity at 3 µM (3 µM 1PBC, 140 mV, 2 µM Ca2+): 41.8%
- Steady-state current (normalized) (3 µM 1PBC, -20 mV, 2 µM Ca2+): -0.1133
- remaining activity at 3 µM (3 µM 1PBC, -20 mV, 2 µM Ca2+): 58.9%
- Steady-state current (normalized) (3 µM 1PBC, -40 mV, 2 µM Ca2+): -0.2482
- remaining activity at 3 µM (3 µM 1PBC, -40 mV, 2 µM Ca2+): 63.9%
- Steady-state current (normalized) (3 µM 1PBC, -60 mV, 2 µM Ca2+): -0.3977
- remaining activity at 3 µM (3 µM 1PBC, -60 mV, 2 µM Ca2+): 68.6%
- Steady-state current (normalized) (3 µM 1PBC, -80 mV, 2 µM Ca2+): -0.557
- remaining activity at 3 µM (3 µM 1PBC, -80 mV, 2 µM Ca2+): 72.6%
- Steady-state current (normalized) (3 µM 1PBC, -100 mV, 2 µM Ca2+): -0.718
- remaining activity at 3 µM (3 µM 1PBC, -100 mV, 2 µM Ca2+): 75.6%
- Steady-state current (normalized) (3 µM 1PBC, -120 mV, 2 µM Ca2+): -0.8735
- remaining activity at 3 µM (3 µM 1PBC, -120 mV, 2 µM Ca2+): 78.1%
- Steady-state current (normalized) (3 µM 1PBC, -140 mV, 2 µM Ca2+): -1.031
- remaining activity at 3 µM (3 µM 1PBC, -140 mV, 2 µM Ca2+): 80.3%
- Steady-state current (normalized) (10 µM 1PBC, 0 mV, 2 µM Ca2+): 0.0007397
- remaining activity at 10 µM (10 µM 1PBC, 0 mV, 2 µM Ca2+): 30.3%
- I/Imax scaled to open probability (10 µM 1PBC, 400 nM Ca2+, 80 mV): 0.1226
- I/Imax scaled to open probability (10 µM 1PBC, 800 nM Ca2+, 80 mV): 0.1094
- I/Imax scaled to open probability (10 µM 1PBC, 2 µM Ca2+, 80 mV): 0.1474
- Steady-state current (normalized) (10 µM 1PBC, 20 mV, 2 µM Ca2+): 0.04925
- remaining activity at 10 µM (10 µM 1PBC, 20 mV, 2 µM Ca2+): 25.3%
- Steady-state current (normalized) (10 µM 1PBC, 40 mV, 2 µM Ca2+): 0.08188
- remaining activity at 10 µM (10 µM 1PBC, 40 mV, 2 µM Ca2+): 21.7%
- Steady-state current (normalized) (10 µM 1PBC, 60 mV, 2 µM Ca2+): 0.1024
- remaining activity at 10 µM (10 µM 1PBC, 60 mV, 2 µM Ca2+): 18.6%
- Steady-state current (normalized) (10 µM 1PBC, 80 mV, 2 µM Ca2+): 0.1202
- remaining activity at 10 µM (10 µM 1PBC, 80 mV, 2 µM Ca2+): 17%
- Steady-state current (normalized) (10 µM 1PBC, 100 mV, 2 µM Ca2+): 0.1383
- remaining activity at 10 µM (10 µM 1PBC, 100 mV, 2 µM Ca2+): 16.3%
- Steady-state current (normalized) (10 µM 1PBC, 120 mV, 2 µM Ca2+): 0.1588
- remaining activity at 10 µM (10 µM 1PBC, 120 mV, 2 µM Ca2+): 16.3%
- Steady-state current (normalized) (10 µM 1PBC, 140 mV, 2 µM Ca2+): 0.1862
- remaining activity at 10 µM (10 µM 1PBC, 140 mV, 2 µM Ca2+): 17.1%
- Steady-state current (normalized) (10 µM 1PBC, -20 mV, 2 µM Ca2+): -0.06795
- remaining activity at 10 µM (10 µM 1PBC, -20 mV, 2 µM Ca2+): 35.3%
- Steady-state current (normalized) (10 µM 1PBC, -40 mV, 2 µM Ca2+): -0.1586
- remaining activity at 10 µM (10 µM 1PBC, -40 mV, 2 µM Ca2+): 40.9%
SMILES: N#Cc1c(C(F)(F)F)cc(O)n2c1nc1ccccc12 [1PBC]
